In patent publication US9267949B2, “Alkylamino BODIPY dyes as selective fluorescent probes for proteins and mouse embryonic stem cells” (National University of Singapore, priority 2011, dated 2016):

Assays:
[1] = Spectroscopic properties of the BDM library (absorbance and emission maxima); type: physicochemical
[2] = Quantum yield measurements; type: physicochemical; settings: referred to Rhodamine B in EtOH, excitation 510 nm, emission integrated 540-800 nm
Method: Quantum yields were calculated by measuring the integrated emission area of the fluorescent spectra, and referring them to the area measured for Rhodamine B in EtOH after excitation at 510 nm (ΦRho-B=0.70). Quantum yields for the BDM products were then calculated using equation below, where F represents the area of fluorescent emission, n is reflective index of the solvent, and Abs is absorbance at excitation wavelength selected for standards and samples. Emission was integrated from 540 nm to 800 nm.

λmax (ABS) [1] [nm]	λmax (EM) [1] [nm]	φ (quantum yield) [2]	SMILES
561	572	0.04	COc1cccc(/C=C/C2=[N+]3C(=C(CCN)c4cccn4[B-]3(F)F)C(C)=C2)c1O [BDM-97]
556	567	0.18	CC1=CC(/C=C/c2cccc(O)c2)=[N+]2C1=C(CCN)c1cccn1[B-]2(F)F [BDM-105]
563	583	0.85	COc1ccc(/C=C/C2=[N+]3C(=C(CCN)c4cccn4[B-]3(F)F)C(C)=C2)cc1 [BDM-110]
566	589	0.79	CC(=O)Nc1ccc(/C=C/C2=[N+]3C(=C(CCN)c4cccn4[B-]3(F)F)C(C)=C2)cc1 [BDM-111]
568	594	0.05	COc1ccc(/C=C/C2=[N+]3C(=C(CCN)c4cccn4[B-]3(F)F)C(C)=C2)cc1O [BDM-132]
563	575	0.28	CC1=CC(/C=C/c2ccc3ccccc3c2)=[N+]2C1=C(CCN)c1cccn1[B-]2(F)F [BDM-137]
554	566	0.42	CC1=CC(/C=C/c2ccccc2C)=[N+]2C1=C(CCN)c1cccn1[B-]2(F)F [BDM-143]
553	564	0.97	COc1cccc(/C=C/C2=[N+]3C(=C(CCN)c4cccn4[B-]3(F)F)C(C)=C2)c1 [BDM-186]
574	605	0.20	COc1ccc(/C=C/C2=[N+]3C(=C(CCN)c4cccn4[B-]3(F)F)C(C)=C2)c(O)c1 [BDM-192]
559	574	0.59	COc1ccccc1/C=C/C1=[N+]2C(=C(CCN)c3cccn3[B-]2(F)F)C(C)=C1 [BDM-198]

Continued, molecule first:

SMILES	λmax (ABS) [1] [nm]	λmax (EM) [1] [nm]	φ (quantum yield) [2]
COc1ccc2[nH]cc(/C=C/C3=[N+]4C(=C(CCN)c5cccn5[B-]4(F)F)C(C)=C3)c2c1 [BDM-93]	592	653	0.06
CC1=CC(/C=C/c2ccc(Br)s2)=[N+]2C1=C(CCN)c1cccn1[B-]2(F)F [BDM-100]	571	582	0.43
CC1=CC(/C=C/c2ccc(Oc3ccccc3)cc2)=[N+]2C1=C(CCN)c1cccn1[B-]2(F)F [BDM-101]	559	576	0.66
CCN(CC)c1ccc(/C=C/C2=[N+]3C(=C(CCN)c4cccn4[B-]3(F)F)C(C)=C2)cc1 [BDM-107]	617	681	0.05
CC1=CC(/C=C/c2c(C)cc(C)cc2C)=[N+]2C1=C(CCN)c1cccn1[B-]2(F)F [BDM-108]	549	573	0.35
CC1=CC(/C=C/c2ccc(C)o2)=[N+]2C1=C(CCN)c1cccn1[B-]2(F)F [BDM-135]	577	601	0.10
CC1=CC(/C=C/c2ccc3c(c2)OCO3)=[N+]2C1=C(CCN)c1cccn1[B-]2(F)F [BDM-139]	564	584	0.55
CCCOc1ccc(/C=C/C2=[N+]3C(=C(CCN)c4cccn4[B-]3(F)F)C(C)=C2)cc1 [BDM-140]	564	585	0.57
COc1cc(OC)c(OC)cc1/C=C/C1=[N+]2C(=C(CCN)c3cccn3[B-]2(F)F)C(C)=C1 [BDM-144]	578	612	0.05
CC1=CC(/C=C/c2ccc(OCCCN(C)C)cc2)=[N+]2C1=C(CCN)c1cccn1[B-]2(F)F [BDM-163]	566	586	0.41
CC1=CC(/C=C/c2ccc(C(C)(C)C)cc2)=[N+]2C1=C(CCN)c1cccn1[B-]2(F)F [BDM-177]	556	567	0.78
COc1ccc(Oc2ccc(/C=C/C3=[N+]4C(=C(CCN)c5cccn5[B-]4(F)F)C(C)=C3)cc2)cc1 [BDM-178]	561	577	0.37
COC(=O)c1ccc(-c2ccc(/C=C/C3=[N+]4C(=C(CCN)c5cccn5[B-]4(F)F)C(C)=C3)cc2)cc1 [BDM-179]	566	581	0.26
COc1ccc(-c2ccc(/C=C/C3=[N+]4C(=C(CCN)c5cccn5[B-]4(F)F)C(C)=C3)o2)cc1Cl [BDM-195]	600	663	0.03
